Reference: paper PMC3602154 (PLoS ONE, 2013)

Tests used:
[1] = target: Sigma2 (Homo sapiens, UniProt Q5BJF2); experiment: PDSP radioligand binding, Sigma2; details: for Ki: Table 2
Text: (§1) [17] and http://pdsp.med.unc.edu/UNC-CH%20Protocol%20Book.pdf.

[2] = target: NET (norepinephrine transporter) (Homo sapiens, UniProt P23975); experiment: PDSP radioligand binding, norepinephrine transporter; details: 10 µM, quadruplicate; read-out: NET Primary Screen inhibition of binding
Text: as §1

[3] = target: Sigma1 (Homo sapiens, UniProt Q99720); experiment: PDSP radioligand binding, Sigma1; details: for inhibition at 10 µM: quadruplicate, read-out: Sigma1 Primary Screen inhibition of binding
Text: as §1

[4] = target: NMDA Receptor (MK-801 binding site); experiment: PDSP radioligand binding, NMDA receptor; details: Table 2; for Ki: read-out: NMDA (Ki) (converted)
Text: as §1

[5] = target: SERT (serotonin transporter) (Homo sapiens, UniProt P31645); experiment: biochemical; format: binding
Text: as §1

[6] = tested on: dopamine transporter (DAT); details: cited from earlier work

Sigma2, sequence (Q5BJF2 whole entry): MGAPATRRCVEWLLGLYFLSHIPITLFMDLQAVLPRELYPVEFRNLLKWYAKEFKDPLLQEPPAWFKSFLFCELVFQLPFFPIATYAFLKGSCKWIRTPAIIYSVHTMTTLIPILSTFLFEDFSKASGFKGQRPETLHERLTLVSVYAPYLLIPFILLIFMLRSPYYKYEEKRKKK
NET (norepinephrine transporter), sequence (P23975 whole entry, species assumed): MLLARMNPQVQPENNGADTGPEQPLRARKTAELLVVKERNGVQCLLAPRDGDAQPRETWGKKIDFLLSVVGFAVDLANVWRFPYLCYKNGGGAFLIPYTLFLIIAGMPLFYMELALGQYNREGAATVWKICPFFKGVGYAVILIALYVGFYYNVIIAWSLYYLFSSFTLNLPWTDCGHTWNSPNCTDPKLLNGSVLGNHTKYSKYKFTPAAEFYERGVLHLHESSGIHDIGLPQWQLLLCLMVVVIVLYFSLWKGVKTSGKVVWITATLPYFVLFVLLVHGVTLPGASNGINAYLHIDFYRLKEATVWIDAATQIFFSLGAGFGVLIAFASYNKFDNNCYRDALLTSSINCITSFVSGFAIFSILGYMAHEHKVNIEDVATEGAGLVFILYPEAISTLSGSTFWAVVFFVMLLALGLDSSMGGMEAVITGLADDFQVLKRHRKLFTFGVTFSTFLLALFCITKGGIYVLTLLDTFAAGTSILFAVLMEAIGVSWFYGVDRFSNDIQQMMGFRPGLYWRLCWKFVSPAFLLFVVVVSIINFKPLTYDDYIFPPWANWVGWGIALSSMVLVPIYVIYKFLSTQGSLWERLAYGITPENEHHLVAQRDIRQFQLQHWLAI
Sigma1, sequence (Q99720 whole entry): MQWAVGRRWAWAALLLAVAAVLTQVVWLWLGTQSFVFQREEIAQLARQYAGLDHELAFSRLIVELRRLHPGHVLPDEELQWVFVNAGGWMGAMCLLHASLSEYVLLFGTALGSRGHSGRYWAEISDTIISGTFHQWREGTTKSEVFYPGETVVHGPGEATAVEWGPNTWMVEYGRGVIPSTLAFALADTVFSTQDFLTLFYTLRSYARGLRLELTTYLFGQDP
SERT (serotonin transporter), sequence (P31645 whole entry, species assumed): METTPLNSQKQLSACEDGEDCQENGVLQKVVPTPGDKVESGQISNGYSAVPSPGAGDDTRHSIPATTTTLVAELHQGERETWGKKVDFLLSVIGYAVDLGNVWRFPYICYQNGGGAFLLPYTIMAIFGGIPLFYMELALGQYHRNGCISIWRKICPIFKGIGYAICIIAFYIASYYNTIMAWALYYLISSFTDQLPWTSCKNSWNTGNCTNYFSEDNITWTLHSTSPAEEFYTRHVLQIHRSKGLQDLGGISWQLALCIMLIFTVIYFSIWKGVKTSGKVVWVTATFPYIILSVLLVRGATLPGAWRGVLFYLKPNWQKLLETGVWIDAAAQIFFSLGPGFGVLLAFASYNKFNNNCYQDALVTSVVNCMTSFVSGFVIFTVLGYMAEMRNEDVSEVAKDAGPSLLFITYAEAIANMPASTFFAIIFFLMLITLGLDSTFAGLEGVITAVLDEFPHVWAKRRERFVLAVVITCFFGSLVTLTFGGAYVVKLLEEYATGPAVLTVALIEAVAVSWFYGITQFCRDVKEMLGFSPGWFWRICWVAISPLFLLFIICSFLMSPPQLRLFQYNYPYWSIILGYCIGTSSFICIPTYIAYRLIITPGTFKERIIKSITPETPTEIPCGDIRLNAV

CNC1(c2ccccc2Cl)CCCCC1=O (racemic) [Ketamine, (RS)-2-(2-chlorophenyl)-2-(methylamino)cyclohexanone, reference compound]
inhibition at 10 µM ([1]; 10 µM, quadruplicate, read-out: Sigma2 Primary Screen inhibition of binding): < 50% | effect on sigma2 receptors ([1]; tested at 10 µM): no significant effect | inhibition at 10 µM [2]: < 50% | inhibition at 10 µM [3]: < 50% | effect on sigma1 receptors ([3]; tested at 10 µM): no significant effect

CCNC1(c2cccc(OC)c2)CCCCC1 [3-MeO-PCE, N-ethyl-1-(3-methoxyphenyl)cyclohexanamine]
Ki ([1]; Sigma2 (Ki, nM)): 525 nM | Ki ([1]; Sigma2 pKi +/− SD): 490 nM | inhibition at 10 µM [2]: < 50% | Ki [3]: 4.52 µM | NMDA pKi +/− SD [4]: 7.22±0.08 | Ki [4]: 61 nM | affinity for the serotonin transporter (SERT), in words [5]: submicromolar affinities | Ki ([5]; Table 2): 115 nM

c1ccc(C2(N3CCCCC3)CCCCC2)cc1 [Phencyclidine, reference compound]
potency at DAT, in words [6]: submicromolar potency | Ki ([1]; Sigma2 (Ki, nM)): 136 nM | Ki ([1]; Sigma2 pKi +/− SD): 151 nM | inhibition at 10 µM [2]: < 50% | inhibition at 10 µM [3]: < 50% | Ki [4]: 59 nM
